# What was measured:
# [1] = in vivo
# Experimental: (§1) Thus, 14 ml of the obtained concentrate solution containing the ergothioneine were mixed in 120 g of the feed for hen used generally, it were mixed with the mixing stirrer 4, and the feed for the laying hen 41 was obtained. The feed for the laying hen 41 of 120 g per a hen was continuously fed to the laying hen for 36 days, dividing into four times a day.
# The feeding and raising to the laying hen, and the measure of the ergothioneine content in the egg white of the egg extracted in the meantime are performed in the following ways. Numbering was carried out to ten hens, respectively, and it stored one hen in the raising gauge, and one egg (a total of ten eggs) which each hen will lay on the 1 day was extracted, numbering was carried out to each egg, and the ergothioneine content in the egg white of each egg was measured. In a fixed amount of the ergothioneine, the chromatogram of an internal standard substance and the ergothioneine are obtained from the egg white which preliminarily added the internal standard substance of the known amount by a high performance chromatography, the amount of the ergothioneine is measured from the ratio of the peak area of the ergothioneine to that of the internal standard substance.
# In the measurement of the ergothioneine content in the egg white, the feed for the hen used generally (the general feed for the hen) was fed for 5 days (minus fifth day to minus first day), the feed of the laying hen which mixed the concentrate solution containing the ergothioneine continuously was fed for 36 days (0 day to 36th day), the feed of the laying hen was stopped after that, the general feed for the hen was started, and it carried out till 71th day. […] The ergothioneine content in each egg white is measured, and the average value of the ergothioneine content in the egg white of these ten eggs is denoted by a graph.
# [2] = in vivo; remark: listed apart in the source
# Experimental: as §1
# The feeding and raising to the laying hen, and the measurement of the ergothioneine content in the egg yolk of the egg extracted in the meantime are performed in the same way as the example 2. In a fixed amount of the ergothioneine in the measurement of the ergothioneine content in the egg yolk of each egg here, the chromatogram of an internal standard substance and the ergothioneine are obtained from the egg yolk which preliminarily added the internal standard substance of the known amount by a high performance chromatography, the amount of the ergothioneine is measured from the ratio of the peak area of the ergothioneine to that of the internal standard substance.
# In FIG. 4, one egg (a total of ten eggs) which each of the ten hens will lay on the 1 day is extracted for every lapsed days which start of the feed of the general feed for the hen, start of the feed of the laying hen, start of the feed of the general feed for the hen to stop of the feed of the laying hen and continue on the 71th day. The ergothioneine content in each egg yolk is measured, and the average value of the ergothioneine content in the egg yolk of these ten eggs is denoted by a graph.
compound,measurement,setting,value
C[N+](C)(C)[C@@H](Cc1c[nH]c(=S)[nH]1)C(=O)[O-] [ergothioneine],day on which ergothioneine content in the egg white returned to the initial value,[1],71 days
same,increase of ergothioneine content in the egg white over initial value,[1],about 12.8 times
same,start of concentration of ergothioneine to the egg white,[1],first day
same,day on which ergothioneine content in the egg yolk returned to the initial value,[2],58 days
same,increase of ergothioneine content in the egg yolk over initial value,[2],about 8.5 times
same,start of concentration of ergothioneine to the egg yolk,[2],second day

# Source: patent US9788567B2, “Ergothioneine-containing hens egg and method of preparing hens feed for producing same” (Origin Biotechnology Kabushikikaisha, priority 2013, dated 2017)
